These results are taken from US9340600B2 (Indiana University Research and Technology Corporation, priority 2012, dated 2016).

*1 amine or outer side, *2 acyl side, *3 side chain or, on linkers, in order; H or OH if unused. Where a SMILES comes first, the peptide text is derived from it. Side-chain parts run from the residue outwards. [ ]: non-standard residue; d: D form. The star is where a group is joined. γGlu = O=C(O)[C@H](CCC(=O)[*:2])N[*:1]; Palmitoyl = CCCCCCCCCCCCCCCC(=O)*; Met(O) = CS(=O)CC[C@H](N)C(=O)O; Aib = CC(C)(N)C(=O)O

Test [1] addresses T1, GIP receptor (Homo sapiens, UniProt P48546).
T1 construct: expressed in transfected cells; host or cells: HEK293
T1 sequence (P48546 22-466): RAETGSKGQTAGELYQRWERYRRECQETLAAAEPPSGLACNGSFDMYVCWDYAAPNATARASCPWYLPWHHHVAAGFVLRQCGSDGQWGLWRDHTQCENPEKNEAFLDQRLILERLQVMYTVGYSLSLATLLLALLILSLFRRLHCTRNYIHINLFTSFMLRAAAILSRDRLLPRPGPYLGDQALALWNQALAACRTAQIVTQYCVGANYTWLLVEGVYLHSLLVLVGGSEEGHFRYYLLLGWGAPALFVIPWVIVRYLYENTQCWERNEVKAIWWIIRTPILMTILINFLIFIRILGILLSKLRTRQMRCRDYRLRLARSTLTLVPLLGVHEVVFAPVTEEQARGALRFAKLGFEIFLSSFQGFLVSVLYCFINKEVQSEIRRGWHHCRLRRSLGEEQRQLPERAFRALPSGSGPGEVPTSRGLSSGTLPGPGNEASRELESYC
The following applies: cited from earlier work.

The target in a further test is T2, glucagon receptor (Homo sapiens, UniProt P47871).
T2 construct: expressed in transfected cells; host or cells: HEK293
T2 sequence (P47871 26-477): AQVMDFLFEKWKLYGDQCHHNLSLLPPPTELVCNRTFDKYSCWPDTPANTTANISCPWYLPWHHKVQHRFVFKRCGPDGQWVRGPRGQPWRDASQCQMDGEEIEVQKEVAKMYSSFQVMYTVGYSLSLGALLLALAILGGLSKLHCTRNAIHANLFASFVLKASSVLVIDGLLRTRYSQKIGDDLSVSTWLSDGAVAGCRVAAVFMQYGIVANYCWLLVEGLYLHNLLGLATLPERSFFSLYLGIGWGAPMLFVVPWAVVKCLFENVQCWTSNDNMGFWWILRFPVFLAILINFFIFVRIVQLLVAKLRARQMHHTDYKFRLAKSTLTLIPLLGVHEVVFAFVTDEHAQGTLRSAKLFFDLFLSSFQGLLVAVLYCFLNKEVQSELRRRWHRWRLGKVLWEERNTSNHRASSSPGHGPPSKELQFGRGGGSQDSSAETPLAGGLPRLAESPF
As to the kind of experiment: cAMP induction, firefly luciferase-based reporter assay in HEK293 cells co-transfected with glucagon receptor. The format is cell-based. The conditions noted are these: EC50 at Glucagon Receptor, Table 3, analogs of SEQ ID NO: 18 varying at position 3. The source says:
(§1) This example describes an exemplary method of testing the biological activity of the peptides of the present disclosures, which method involves assaying cAMP synthesis.

For another test, the target named is T3, GLP-1 receptor (Homo sapiens, UniProt P43220).
T3 construct: expressed in transfected cells; host or cells: HEK293
T3 sequence (P43220 24-463): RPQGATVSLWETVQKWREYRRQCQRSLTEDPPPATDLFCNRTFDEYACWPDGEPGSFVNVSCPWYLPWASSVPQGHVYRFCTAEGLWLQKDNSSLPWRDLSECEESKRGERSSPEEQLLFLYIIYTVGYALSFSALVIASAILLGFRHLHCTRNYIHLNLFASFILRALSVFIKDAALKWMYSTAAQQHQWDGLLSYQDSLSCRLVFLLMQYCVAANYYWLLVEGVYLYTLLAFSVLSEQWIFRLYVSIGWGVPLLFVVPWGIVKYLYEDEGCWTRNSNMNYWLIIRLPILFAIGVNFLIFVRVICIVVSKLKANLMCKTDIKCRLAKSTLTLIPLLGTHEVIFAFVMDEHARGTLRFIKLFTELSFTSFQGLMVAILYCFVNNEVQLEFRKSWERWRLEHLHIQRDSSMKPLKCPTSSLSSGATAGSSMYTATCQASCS
The experiment in a line: cAMP induction, firefly luciferase-based reporter assay in HEK293 cells co-transfected with GLP-1 receptor. The test is classed as cell-based. The conditions noted are these: EC50 at GLP-1 Receptor, Table 3, analogs of SEQ ID NO: 18 varying at position 3.
Text: as §1

In test [2] the target is T1, GIP receptor. As to the kind of experiment: cAMP induction, firefly luciferase-based reporter assay in HEK293 cells co-transfected with GIP receptor. The test is classed as cell-based. The following applies: EC50 at GIP Receptor, Table 3, analogs of SEQ ID NO: 18 varying at position 3.
Text: as §1

“Native glucagon: native human glucagon (SEQ ID NO: 1)”: in the test with GIP receptor [1], the “activation of the GIP receptor” value is listed as “does not activate the GIP receptor”. In addition, in the test with GIP receptor [1] (relative to native GIP), the “activity of native GIP at the GIP receptor” value is recorded as approximately 0%.
Regarding `CCCCCCCCCCCCCCCC(=O)N[C@@H](CCC(=O)NCCCC[C@H](NC(=O)[C@H](CC(=O)O)NC(=O)[C@H](CO)NC(=O)[C@@H](NC(=O)[C@H](Cc1ccccc1)NC(=O)[C@@H](NC(=O)CNC(=O)[C@H](CC[S+](C)[O-])NC(=O)C(C)(C)NC(=O)[C@@H](N)Cc1c[nH]cn1)[C@@H](C)O)[C@@H](C)O)C(=O)N[C@@H](CO)C(=O)N[C@@H](CCCCN)C(=O)N[C@@H](Cc1ccc(O)cc1)C(=O)N[C@@H](CC(C)C)C(=O)N[C@@H](CCC(=O)O)C(=O)N[C@@H](CCC(=O)O)C(=O)N[C@@H](CCCNC(=N)N)C(=O)N[C@@H](C)C(=O)N[C@@H](C)C(=O)N[C@@H](CCC(N)=O)C(=O)N[C@@H](CCC(=O)O)C(=O)N[C@@H](Cc1ccccc1)C(=O)N[C@H](C(=O)N[C@@H](CCC(N)=O)C(=O)N[C@@H](Cc1c[nH]c2ccccc12)C(=O)N[C@@H](CC(C)C)C(=O)N[C@@H](CC(C)C)C(=O)N[C@@H](CCC(=O)O)C(=O)NCC(=O)NCC(=O)N1CCC[C@H]1C(=O)N[C@@H](CO)C(=O)N[C@@H](CO)C(=O)NCC(=O)N[C@@H](C)C(=O)N1CCC[C@H]1C(=O)N1CCC[C@H]1C(=O)N1CCC[C@H]1C(=O)N[C@@H](CO)C(N)=O)C(C)C)C(=O)O` (some centres unmarked) [compound 42] (H-H[Aib][Met(O)]GTFTSDK([γGlu-Palmitoyl])SKYLEERAAQEFVQWLLEGGPSSGAPPPS-NH2), the EC50 was 42 pM on glucagon receptor, 1 pM at GLP-1 receptor and 6 pM at GIP receptor [2].
